Assay results as given in PubChem BioAssay (NCI).
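Growth conditions: 96-well plates. Treatment: test compound, 48 hours, 5 concentrations. Analysis: linear interpolation between bracketing concentrations; unreached endpoints set to highest concentration. Abbreviation: GI50, concentration required for 50% inhibition of growth. TGI: concentration producing complete growth inhibition.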

Experiments:
Assay in all cases: growth of human tumour cells (NCI), 48 h
[1] = test system: CAKI-1 renal
[2] = test system: RPMI-8226 leukemia
[3] = test system: HT29 colon
[4] = test system: M14 melanoma
[5] = test system: NCI-H522 lung
[6] = test system: A549 NSCLC
[7] = test system: 786-0 renal
[8] = test system: CCRF-CEM leukemia
[9] = test system: T-47D breast
[10] = test system: PC-3 prostate

CC1=NN(C(=O)Cc2ccccc2)C(=O)/C1=C\c1ccc(O)cc1 was tested, and the TGI [1] was over 100 µM, the TGI [2] was over 100 µM and the TGI [3] was over 100 µM. For the same compound, the TGI [4] was over 100 µM, the TGI [5] was over 100 µM and the TGI [6] was over 100 µM. For the same compound, the TGI [7] was over 100 µM and the TGI [8] was over 100 µM.
For CCCCCCCCCCCCCCCCCCOc1ccccc1CC(=O)NCC[N+]1(C)CCOCC1, the GI50 [1] was 18.4 µM, the TGI [1] was 38.3 µM and the GI50 [3] was 2.05 µM. It also gave a TGI [3] of 5.19 µM, a GI50 [4] of 4.32 µM and a TGI [4] of over 100 µM. The GI50 [9] was 6.85 µM, the TGI [9] was 39.2 µM and the GI50 [5] was 1.95 µM. It also gave a TGI [5] of 5.05 µM, a GI50 [6] of 4.39 µM and a TGI [6] of 26.3 µM.
S=C(Cc1ccc2c(c1)Sc1ccccc1O2)N1CCOCC1 gave a TGI [1] of over 100 µM, a TGI [2] of over 100 µM and a TGI [3] of over 100 µM. The TGI [4] was over 100 µM, the TGI [9] was over 100 µM and the TGI [6] was over 100 µM. It also gave a TGI [10] of over 100 µM and a TGI [7] of over 100 µM.
COc1cccc(C2c3cc4c(cc3OC(O)C2C)OCO4)c1OC (centres undefined) showed a TGI [1] of 13.9 µM, a TGI [2] of 14.6 µM and a TGI [3] of 24.5 µM. It also gave a TGI [4] of 50.9 µM, a TGI [9] of 40.7 µM and a TGI [6] of 26 µM. The TGI [10] was 32.1 µM, the TGI [7] was 19.2 µM and the TGI [8] was 9.6 µM.
For O=C(O)c1nc2ccc(C(F)(F)F)cc2[nH]c1=O, the TGI [1] was over 100 µM, the TGI [2] was over 100 µM and the TGI [3] was over 100 µM. The TGI [4] was over 100 µM, the TGI [9] was over 100 µM and the TGI [5] was over 100 µM. It also gave a TGI [6] of over 100 µM, a TGI [10] of over 100 µM and a TGI [8] of over 100 µM.
Work on CN(C)CCNC(=O)c1cccc2c1Nc1ccccc1S2 yielded a TGI [2] of 29.9 µM, a TGI [3] of 25 µM and a TGI [6] of 28.8 µM. It also gave a TGI [8] of 28.1 µM.
Work on CSCC[C@@H](NC(=O)[C@H](CC(C)C)NC(=O)C(Cc1cnc[nH]1)NC(=O)CNC(=O)[C@@H](NC(=O)[C@H](C)NC(=O)[C@H](Cc1c[nH]c2ccccc12)NC(=O)[C@H](CCC(N)=O)NC(=O)[C@@H](N)CC(N)=O)C(C)C)C(N)=O (some centres undefined) yielded a TGI [2] of over 100 µM, a TGI [3] of over 100 µM and a TGI [5] of over 100 µM. It also gave a TGI [6] of over 100 µM and a TGI [8] of over 100 µM.
In the case of N#CNC(N)=NCc1ccccc1, the TGI [2] was over 100 µM, the TGI [3] was over 100 µM and the TGI [4] was over 100 µM. The TGI [5] was over 100 µM, the TGI [6] was over 100 µM and the TGI [7] was over 100 µM. It also gave a TGI [8] of over 100 µM.
For CC1CC(N2CCOCC2)=Nc2ccccc2N1C (centres undefined), the TGI [1] was over 100 µM, the TGI [2] was over 100 µM and the TGI [3] was over 100 µM. It also gave a TGI [4] of over 100 µM, a TGI [5] of over 100 µM and a TGI [6] of over 100 µM. It also gave a TGI [10] of over 100 µM, a TGI [7] of over 100 µM and a TGI [8] of over 100 µM.
Cc1cc([N+](=O)[O-])c(C)c2c1[nH]c1ccc(Cl)cc12 was tested, and the TGI [1] was over 100 µM, the TGI [2] was over 100 µM and the TGI [3] was over 100 µM. For the same compound, the TGI [4] was over 100 µM, the TGI [5] was 46 µM and the TGI [6] was over 100 µM. For the same compound, the TGI [7] was over 100 µM and the TGI [8] was over 100 µM.
For Cn1nc(-c2ccc(S(=O)(=O)/N=C(\NN)Nc3ccc(Cl)cc3)s2)cc1C(F)(F)F, the TGI [1] was 35.1 µM, the TGI [2] was 56 µM and the TGI [3] was 30.4 µM. It also gave a TGI [4] of 31.5 µM, a TGI [9] of 27.6 µM and a TGI [6] of 29.3 µM. It also gave a TGI [10] of 31.2 µM and a TGI [7] of 30.6 µM.
Work on O=C(/C=C/c1ccc(Cl)cc1)Oc1ccc(C=C2CCC/C(=C\c3ccc(OC(=O)/C=C/c4ccc(Cl)cc4)cc3)C2=O)cc1 yielded a TGI [1] of over 100 µM, a TGI [2] of 97.1 µM and a TGI [3] of over 100 µM. For the same compound, the TGI [4] was over 100 µM, the TGI [9] was over 100 µM and the TGI [5] was over 100 µM. For the same compound, the TGI [6] was over 100 µM, the TGI [10] was over 100 µM and the TGI [7] was over 100 µM.
Work on COc1cc2nc(-c3ccc(Cl)cc3)cc(OCCCN3CCOCC3)c2cc1OC yielded a GI50 [3] of 0.61 µM, a TGI [3] of over 100 µM and a GI50 [4] of 0.545 µM. It also gave a TGI [4] of 2.7 µM, a GI50 [9] of 1.96 µM and a TGI [9] of over 100 µM. For the same compound, the GI50 [6] was 2.02 µM, the TGI [6] was over 100 µM and the GI50 [10] was 2.63 µM. It also gave a TGI [10] of over 100 µM, a GI50 [8] of 3.35 µM and a TGI [8] of over 100 µM.
With COc1cc(C)c(CC/C(C)=C/Cc2cc(O)ccc2O)c(C)c1C the TGI [1] was over 25 µM, the TGI [2] was over 25 µM and the TGI [3] was over 25 µM. It also gave a TGI [4] of over 25 µM, a TGI [5] of over 25 µM and a TGI [6] of over 25 µM. The TGI [7] was over 25 µM and the TGI [8] was over 25 µM.
Cc1nc2ccc(Cl)cc2c(-n2ccnc2)c1CCn1ccnc1 was tested, and the TGI [1] was over 100 µM, the TGI [3] was 41.7 µM and the TGI [4] was over 100 µM. The TGI [5] was 70.9 µM, the TGI [6] was over 100 µM and the TGI [10] was 72.1 µM. The TGI [7] was 3.2 µM and the TGI [8] was 69.3 µM.
CCOC(=O)c1c(N2CCCC2)[nH]c(=O)c(C(c2ccc(OC)cc2)c2c(O)c(C(=O)OCC)c(N3CCCC3)[nH]c2=O)c1O showed a TGI [1] of 71.1 µM, a TGI [2] of over 100 µM and a TGI [4] of over 100 µM. It also gave a TGI [9] of over 100 µM, a TGI [5] of over 100 µM and a TGI [6] of over 100 µM. For the same compound, the TGI [10] was over 100 µM, the TGI [7] was over 100 µM and the TGI [8] was over 100 µM.
With COC(=O)/C=C(\C)CC/C=C(\C)CCC1OC1(C)C (centres undefined) the TGI [1] was 22.3 µM, the TGI [3] was 27.6 µM and the TGI [4] was 22.9 µM. It also gave a TGI [6] of 24.1 µM, a TGI [10] of 17.4 µM and a TGI [7] of 23.6 µM. The TGI [8] was 21.3 µM.
Cc1nc(N)c(N2CCN(C#N)CC2)c(=O)[nH]1 showed a TGI [2] of over 100 µM, a TGI [3] of over 100 µM and a TGI [4] of over 100 µM. It also gave a TGI [9] of over 100 µM, a TGI [5] of over 100 µM and a TGI [6] of over 100 µM. For the same compound, the TGI [10] was over 100 µM, the TGI [7] was over 100 µM and the TGI [8] was over 100 µM.
CCOC(=O)C1C(c2ccc(Cl)cc2Cl)NC(c2ccc(C)cc2)C(C(=O)OC)S1(=O)=O (centres undefined) showed a TGI [1] of over 100 µM, a TGI [2] of over 100 µM and a TGI [3] of over 100 µM. The TGI [4] was over 100 µM, the TGI [5] was over 100 µM and the TGI [6] was over 100 µM. The TGI [7] was over 100 µM and the TGI [8] was over 100 µM.
N#Cc1c(-c2ccc([N+](=O)[O-])cc2)cc(-c2ccc(Nc3ccnc4cc(Cl)ccc34)cc2)[nH]c1=O gave a TGI [1] of over 100 µM, a TGI [2] of over 100 µM and a TGI [4] of over 100 µM. The TGI [9] was over 100 µM, the TGI [5] was over 100 µM and the TGI [6] was over 100 µM. It also gave a TGI [10] of over 100 µM and a TGI [7] of over 100 µM.
For O=c1ccc2ccc(S)cc2o1, the TGI [1] was over 100 µM, the TGI [2] was over 100 µM and the TGI [3] was over 100 µM. For the same compound, the TGI [4] was over 100 µM, the TGI [9] was over 100 µM and the TGI [5] was over 100 µM. It also gave a TGI [6] of over 100 µM, a TGI [10] of over 100 µM and a TGI [7] of over 100 µM.
c1ccc(-c2c(-c3ccccc3)[n+](Cc3ccc4ccccc4c3)c(-c3ccc(-c4nc5ccccc5s4)cc3)n2Cc2ccc3ccccc3c2)cc1 gave a GI50 [1] of 0.189 µM, a TGI [1] of 0.451 µM and a GI50 [2] of 0.0625 µM. The TGI [2] was 0.426 µM, the GI50 [6] was 0.176 µM and the TGI [6] was 1.55 µM. It also gave a GI50 [10] of 0.111 µM, a TGI [10] of 0.528 µM and a GI50 [8] of 0.202 µM. It also gave a TGI [8] of over 41.5 µM.
CCOC(=O)/C=C/c1nc(C#N)c(N)o1 was tested, and the TGI [1] was over 100 µM, the TGI [2] was over 100 µM and the TGI [3] was over 100 µM. For the same compound, the TGI [4] was over 100 µM, the TGI [6] was over 100 µM and the TGI [10] was over 100 µM. For the same compound, the TGI [7] was over 100 µM and the TGI [8] was over 100 µM.
CC(=O)NNc1nc(C)c(C(=O)NNC(=O)C(=O)Nc2ccc([N+](=O)[O-])cc2[N+](=O)[O-])s1 gave a TGI [1] of over 100 µM, a TGI [2] of over 100 µM and a TGI [3] of over 100 µM. It also gave a TGI [4] of over 100 µM, a TGI [5] of over 100 µM and a TGI [6] of over 100 µM. The TGI [8] was 79.6 µM.
